# Laboratory results reported in patent US20080132569A1, “Antifungal Compositions for Inhibiting Growth of Wood Decay Fungi and Use Thereof” (priority 2006, published 2008).
# Where “and” joins values, the source holds several entries; their conditions need not be identical. Equal values may be shown once. Read-outs that look alike come from different tables or passages of the source.
# Assays:
# [1] = Antifungal assay, mycelium growth on PDA containing the chemical; conditions: T. versicolor; for IC50: Example 1, FIG. 1(A), read-out: IC50 (concentration that inhibited 50% of the mycelium growth)
# [2] = MIC and MFC determination on PDA; conditions: L. sulphureus
# [3] = MIC and MFC determination on PDA; conditions: L. betulina
# [4] = Antifungal assay, mycelium growth on PDA containing the chemical; conditions: L. sulphureus
# [5] = as above; conditions: L. betulina; for Antifungal index: Example 3, FIG. 2(A)
# [6] = as above; conditions: G. trabeum; for Antifungal index: Example 3, FIG. 2(B); for IC50: Example 1, FIG. 1(A), read-out: IC50 (concentration that inhibited 50% of the mycelium growth)
# [7] = as above; conditions: S. commune; for Antifungal index (%): Table 2
# [8] = Antifungal activity on paper (CNS 2690, TAPPI T487 cm-93); conditions: C. globosum, 14 days
# [9] = as above; conditions: A. niger, 14 days
# [10] = Antifungal assay, mycelium growth on PDA containing the chemical; conditions: A. taxa; for Antifungal index (%): Table 2
# [11] = Antifungal assay, mycelium growth on PDA (fungi); conditions: 100 μg/ml; W. extensa, P placenta, L. sulphureus, G. trabeum and F. pinicola
# [12] = Antifungal assay, mycelium growth on PDA (fungi); conditions: soft rot, Cu tolerant, and brown rot fungi
# [13] = Antifungal assay, mycelium growth on PDA containing the chemical; conditions: F. pinicola; for Antifungal index (%): Table 2
# [14] = as above; conditions: C. globosum; for Antifungal index (%): Table 2
# [15] = Antifungal assay, mycelium growth on PDA (fungi)
# [16] = Antifungal assay, mycelium growth on PDA containing the chemical; conditions: W. extensa; for Antifungal index (%): Table 2
# [17] = as above; conditions: P. placenta; for Antifungal index (%): Table 2
# [18] = Antifungal activity on paper (CNS 2690, TAPPI T487 cm-93); conditions: A. terreus, 14 days
# [19] = 100 μg/ml, Table 4, mean ± SE (n = 5)
# [20] = Example 1, FIG. 1(A), read-out: IC50 (concentration that inhibited 50% of the mycelium growth)
# [21] = Table 5, mean ± SE (n = 5), combinations at 1:1 ratio in molarities
# [22] = Table 5, mean ± SE (n = 5), combinations at 1:1 ratio in molarities, read-out: IC50
# [23] = 100 μg/cm^2 on filter paper, listed as octyl gallate
# [24] = 400 μg/cm^2 on filter paper, listed as octyl gallate
structure (smiles),measurement,setting,value
"O=CC=Cc1ccccc1 [Cinnamaldehyde, cinnamaldehyde]",Antifungal index (%),"[1]; 100 μg/ml, Table 1",34 ± 2.2%
same,IC50,[1],1110 µM
same,MFC,[2],700 µM
same,MIC,[2],700 µM
same,MFC,[3],750 µM
same,MIC,[3],750 µM
same,Antifungal index (%),"[4]; 100 μg/ml, Table 1",100 ± 0%
same,Antifungal index (%),[4]; [19],100% and 100 ± 0.0^a %
same,IC50,[4]; [20],170 µM
same,IC90,[4]; [21],530 ± 20 µM
same,IC50,[4]; [22],230 µM
same,Antifungal index,[4]; single compound at 0.17 mM,41%
same,Antifungal index,[5]; 50 μg/ml,6%
same,Antifungal index (%),"[5]; 100 μg/ml, Table 1",100 ± 0%
same,Antifungal index (%),[5]; [19],100% and 100 ± 0.0^a %
same,IC50,[5]; [20],650 µM
same,IC90,[5]; [21],720 ± 60 µM
same,IC50,[5]; [22],650 µM
same,Antifungal index,[6]; 50 μg/ml,22%
same,Antifungal index (%),"[6]; 100 μg/ml, Table 1",31 ± 0.7%
same,IC50,[6],1050 µM
"CCCCCCCCOC(=O)c1cc(O)c(O)c(O)c1 [Octyl gallate, octyl gallate]",Antifungal index (%),[7]; 25 μg/ml,16%
same,Antifungal index (%),[7]; 50 μg/ml,40%
same,Antifungal index (%),[7]; 100 μg/ml,60%
same,Antifungal index (%),[7]; 200 μg/ml,83%
same,IC50 value,[7]; Table 3,114 µg/mL
same,Percent inhibition ratio,[8]; 100 μg/cm^2 on filter paper,100 ± 0%
same,Percent inhibition ratio,[8]; [23],100%
same,Percent inhibition ratio,[8]; 400 μg/cm^2 on filter paper,100 ± 0%
same,Percent inhibition ratio,[9]; 100 μg/cm^2 on filter paper,72 ± 7.6%
same,Percent inhibition ratio,[9]; [23],72%
same,Percent inhibition ratio,[9]; 400 μg/cm^2 on filter paper,99 ± 1.0%
same,Percent inhibition ratio,[9]; [24],99%
same,Antifungal index (%),"[1]; 25 μg/ml, Table 2",37%
same,Antifungal index (%),"[1]; 50 μg/ml, Table 2",50%
same,Antifungal index (%),"[1]; 100 μg/ml, Table 1",69 ± 9.1%
same,Antifungal index (%),"[1]; 100 μg/ml, Table 2",69%
same,Antifungal index (%),"[1]; 200 μg/ml, Table 2",85%
same,IC50,[1],160 µM
same,IC50 value,[1]; Table 3,173 µg/mL
same,Antifungal index (%),[10]; 25 μg/ml,73%
same,Antifungal index (%),[10]; 50 μg/ml,100%
same,Antifungal index (%),[10]; 200 μg/ml,100%
same,IC50 value,[10]; Table 3,<25 µg/mL
same,"inhibition (antifungal index), span over five fungi",[11],75˜96%
same,IC50 value,[12],less than 50 μg/ml
same,Antifungal index (%),[13]; 25 μg/ml,52%
same,Antifungal index (%),[13]; 50 μg/ml,78%
same,Antifungal index (%),[13]; 100 μg/ml,94%
same,Antifungal index (%),[13]; 200 μg/ml,100%
same,IC50 value,[13]; Table 3,<25 µg/mL
same,Antifungal index (%),"[4]; 50 μg/ml, Table 2",85%
same,Antifungal index (%),"[4]; 100 μg/ml, Table 1",100 ± 0%
same,Antifungal index (%),"[4]; 100 μg/ml, Table 2",96%
same,Antifungal index (%),"[4]; 200 μg/ml, Table 2",100%
same,IC50,[4]; [20],40 µM
same,IC50 value,[4]; Table 3,50.6 µg/mL
same,Antifungal index (%),[14]; 25 μg/ml,82%
same,Antifungal index (%),[14]; 50 μg/ml,100%
same,Antifungal index (%),[14]; 200 μg/ml,100%
same,IC50 value,[14]; Table 3,<25 µg/mL
same,"inhibition (antifungal index), span over three fungi","[15]; 100 μg/ml, L. betulina, T versicolor and S. commune",41˜69%
same,IC50 value,[15]; white rot fungi,less than 200 μg/ml
same,Antifungal index,[5]; 25 μg/ml,16%
same,Antifungal index (%),"[5]; 25 μg/ml, Table 2",16%
same,Antifungal index (%),"[5]; 50 μg/ml, Table 2",28%
same,Antifungal index,[5]; 100 μg/ml,42%
same,Antifungal index (%),"[5]; 100 μg/ml, Table 1",43 ± 2.5%
same,Antifungal index (%),"[5]; 100 μg/ml, Table 2",41%
same,Antifungal index (%),"[5]; 200 μg/ml, Table 2",88%
same,IC50,[5]; [20],470 µM
same,IC50 value,[5]; Table 3,137.6 µg/mL
same,Antifungal index,[6]; 25 μg/ml,30%
same,Antifungal index (%),"[6]; 50 μg/ml, Table 2",49%
same,Antifungal index (%),"[6]; 100 μg/ml, Table 1",85 ± 26.2%
same,Antifungal index (%),"[6]; 100 μg/ml, Table 2",77%
same,Antifungal index (%),"[6]; 200 μg/ml, Table 2",93%
same,IC50,[6],240 µM
same,IC50 value,[6]; Table 3,50.8 µg/mL
same,Antifungal index (%),[16]; 25 μg/ml,3%
same,Antifungal index (%),[16]; 50 μg/ml,50%
same,Antifungal index (%),[16]; 100 μg/ml,75%
same,Antifungal index (%),[16]; 200 μg/ml,64%
same,IC50 value,[16]; Table 3,50 µg/mL
same,Antifungal index (%),[17]; 25 μg/ml,58%
same,Antifungal index (%),[17]; 50 μg/ml,75%
same,Antifungal index (%),[17]; 100 μg/ml,82%
same,Antifungal index (%),[17]; 200 μg/ml,84%
same,IC50 value,[17]; Table 3,<25 µg/mL
same,Percent inhibition ratio,[18]; 100 μg/cm^2 on filter paper,51 ± 4.6%
same,Percent inhibition ratio,[18]; [23],51%
same,Percent inhibition ratio,[18]; 400 μg/cm^2 on filter paper,94 ± 8.5%
same,Percent inhibition ratio,[18]; [24],94%
